Patent US11759495B2, “Upregulation of therapeutic T regulatory cells and suppression of suicidal ideations in response to inflammation by administration of nutraceutical compositions alone or combined with minocycline” (Therapeutic Solutions International, Inc., priority 2020, dated 2023)
Read-outs that look alike come from different tables or passages of the source.

Legend:
[1] = test system: inflammatory cytokines associated with ARDS; details: cited from earlier work
[2] = rat, in vivo; cited from earlier work
NK cell = assay: Nanostilbene in cancer patients: NK cell activity and interferon gamma; format: in vivo, human; details: administered in the form of nanostilbene
Text: Additionally, pterostilbene has shown to inhibit inflammatory cytokines associated with ARDS.

iNOS = details: cited from earlier work
macrophage foam cells = details: cited from earlier work
polymicrobial sepsis [3] = details: 10 mg/kg intraperitoneally, 72 h after CL2P; cited from earlier work
polymicrobial sepsis [4] = details: 10 mg/kg intraperitoneally at 1 and 6 h after CL2P and every 12 h; cited from earlier work
[5] = test system: myocardial ischemia and reperfusion; details: cited from earlier work
[6] = test system: lethal endotoxemia / lethal sepsis; details: cited from earlier work
LPS-induced ARDS [7] = details: cited from earlier work
ulcerative colitis (UC) = details: cited from earlier work
[8] = test system: LPS-challenged macrophages; details: 0 to 50 μM, 6 h pre-incubation, LPS 24 h; cited from earlier work
[9] = test system: primary peritoneal macrophages; details: cited from earlier work
LPS-induced ARDS [10] = details: cited from earlier work; remark: listed apart in the source
[11] = test system: lipopolysaccharide-induced inflammatory reactions; details: cited from earlier work
[12] = test system: sepsis induction with live Escherichia coli / LPS O111:B4; details: cited from earlier work; for concentration of IL-1α: controls 1187.0±278.64
[13] = 10 mg/kg intravenously then 10 mg/kg/h infusion

trans-3,5-dimethoxy-4-hydroxystilbene [pterostilbene]
interleukin-1, interleukin-6, interleukin-8 and TNF-alpha [1]: inhibition | bioavailability [2]: 80% | NK cell activity (NK cell): increased NK cell activity | interferon gamma production (NK cell): increased

epigallocatechin-3-gallate [EGCG]
NO production (iNOS; cells cotreated with EGCG and LPS): Inhibition | 130-kDa protein and 4.5-kb mRNA levels of iNOS (iNOS): significantly reduced | disappearance of inhibitor kappaB from cytosolic fraction (iNOS): blocked | activation of nuclear factor-kappaB (iNOS; electrophoretic mobility shift assay): blocked | TNF-α-induced nuclear factor-κB (NF-κB) activity (macrophage foam cells): inhibition | TNF-α-induced downregulation of ABCA1 and decrease in cholesterol efflux to apoA1 (macrophage foam cells; pretreatment): attenuated | survival (polymicrobial sepsis [3]): significantly improved | hypotension (mean arterial blood pressure) (polymicrobial sepsis [4]): significantly improved | myeloperoxidase activity [5, 13]: reduced | myocardial damage [5, 13]: reduced | nuclear factor-kB and activator protein-1 DNA binding ([5]; rat, in vivo): reduction | plasma IL-6 levels ([5]; rat, in vivo): decreased | plasma creatine phosphokinase levels ([5]; rat, in vivo): decreased | rescue from lethal sepsis ([6]; first dose 24 hours after cecal ligation and puncture): rescued | protection against lethal endotoxemia ([6]; intraperitoneal): protected | LPS-induced ARDS (LPS-induced ARDS [7]; 10 mg/kg ip 1 h before LPS 10 mg/kg ip): attenuated | expression of IκB-α (LPS-induced ARDS [7]; 10 mg/kg ip): increased | expression of TLR-4, MyD88, TRIF, and p-p65 in the lung tissue (LPS-induced ARDS [7]; 10 mg/kg ip): alleviated | expression of TNF-α, IL-1f and IL-6 in the lung, serum, and bronchoalveolar lavage fluid (LPS-induced ARDS [7]; 10 mg/kg ip): significantly decreased | expression of p65 (LPS-induced ARDS [7]; 10 mg/kg ip): had no influence | colonic tissue erosion (ulcerative colitis (UC); 50 and 100 mg/kg/day): attenuation | HIF-1α and STAT3 protein expression in the colon (ulcerative colitis (UC); mouse, in vivo): decreasing | plasma levels of IL-10 and TGF-β1 (ulcerative colitis (UC); mouse, in vivo): increasing | release of IL-6 and IL-17 (ulcerative colitis (UC); plasma): reduce

C[S+]([O-])CCCCN=C=S (stereo not shown) [sulforaphane, 1-isothiocyanato-4-(methylsulfinyl)-butane]
direct reaction with cytokines and NO [8]: neither directly reacted with cytokines, nor with NO | expression of NO and cytokines [8]: able to prevent | HO-1 expression ([9]; LPS-stimulated Nrf2 (+/+) macrophages): significantly augmented | LPS-stimulated mRNA expression, protein expression and production of TNF-alpha, IL-1beta, COX-2 and iNOS ([9]; Nrf2 (+/+) macrophages, pretreatment): potently inhibited | anti-inflammatory effect ([9]; Nrf2 (-/-) macrophages): attenuated | serum levels of interleukin-6 (IL-6) (LPS-induced ARDS [10]; 50 mg/kg, ELISA): significantly decreased | serum levels of tumor necrosis factor-α (TNF-α) (LPS-induced ARDS [10]; 50 mg/kg, ELISA): significantly decreased | lactate dehydrogenase (LDH) activity (LPS-induced ARDS [10]; 50 mg/kg, LPS 5 mg/kg 3 days later): significantly decreased | cyclooxygenase-2 (COX-2) protein expression (LPS-induced ARDS [10]; 50 mg/kg, western blot): significantly inhibited | matrix metalloproteinase-9 (MMP-9) protein expression (LPS-induced ARDS [10]; 50 mg/kg, western blot): significantly inhibited | inducible nitric oxide synthase (iNOS) activity (LPS-induced ARDS [10]; 50 mg/kg): significantly inhibited | nuclear factor-KB protein expression (LPS-induced ARDS [10]; 50 mg/kg): significantly decreased | prostaglandin E2 (PGE2) production (LPS-induced ARDS [10]; 50 mg/kg): significantly inhibited | wet-to-dry ratio of the lungs (LPS-induced ARDS [10]; 50 mg/kg): significantly decreased | Nrf2/antioxidant response element (ARE) pathway (LPS-induced ARDS [10]; pre-treatment): activated

CC1=CC(=O)C(C(C)C)=CC1=O [thymoquinone]
concentration of nitric oxide [11]: reduced significantly | lipopolysaccharide-induced inflammatory reactions [11]: suppressed effectively | concentration of IL-1α ([12]; 0.75 mg/kg dose): 310.8 ± 70.93 pg/mL | IL-10 levels ([12]; 0.75 mg/kg, controls 5505.2±333.96): 2885.0 ± 553.98 pg/mL | concentration of IL-1α ([12]; 1 mg/kg group): 428.3 ± 71.32 pg/mL | levels of IL-2 ([12]; P=0.0851): relatively lower levels | levels of TNF-α ([12]; P=0.1817): relatively lower levels | mortality reduction ([12]; mice, thymoquinone intraperitoneal): 80-90% | renal and hepatic biomarker profiles ([12]; mouse, in vivo): improved
